Earlier results as cited in patent US5716935A, “Use of antiotensin II analogs in tissue repair” (University of Southern California, priority 1996, dated 1998).

What was measured:
[1] = system: aminopeptidase; details: reported in literature
[2] = system: wound tissue; details: applied to wound tissue; U.S. Pat. No. 5,015,629

| cleavage by aminopeptidase [1] | Compound | rate of wound healing [2] |
| --- | --- | --- |
| resistant | CC[C@H](C)[C@H](NC(=O)[C@H](Cc1ccc(O)cc1)NC(=O)[C@@H](NC(=O)[C@H](CCCNC(=N)N)NC(=O)CNC)C(C)C)C(=O)N[C@@H](Cc1cnc[nH]1)C(=O)N1CCC[C@H]1C(=O)N[C@@H](Cc1ccccc1)C(=O)O [Analog 4, Sar-Arg-Val-Tyr-Ile-His-Pro-Phe] | – |
| – | Asp-Arg-Val-Tyr-Ile-His-Pro-Phe [angiotensin II, octapeptide present in humans and other species; known pressor agent] | significantly increases |
